Results as given in US20250082624A1, “METHODS OF TREATING COGNITIVE IMPAIRMENT” (NeuroTherapia, Inc., priority 2023, published 2025).
Where two headings read alike, the source gives them in different places.

Experiment: Phase 1b MAD plasma pharmacokinetics, non-compartmental analysis
Type: in vivo, human
Settings: human, plasma, po
Description: Methods: All study procedures were approved by the IRB, and informed consent was obtained. Three cohorts of volunteers 45-80 years of age with well-controlled comorbidities (NOAD) and one cohort of AD patients diagnosed with cognitive impairment consistent with prodromal AD per International Working Group criteria or mild AD per National Institute on Aging—Alzheimer's Association criteria (n=6 active, 2 placebo per cohort) were enrolled. Participants were admitted to the study site for the duration of the dosing and returned 7-12 days after the last dose for a safety visit. Participants received NTRX-07 (10, 30, or 90 mg) or a placebo in a double-blinded randomization orally once daily for seven days. Subjects were assessed for changes in vital signs, including maneuvers to induce lightheadedness, electrocardiograms, 24-hour electroencephalograms (EEG), and safety laboratory studies. The second cohort returned and received a single repeat dose after a standard high-fat meal. The AD cohort also underwent cognitive testing and had blood samples for biomarkers drawn. Subjects had PK sampling done after the first and final dose of the study drug. An independent safety review committee conducted a blinded safety review of adverse events and plasma levels between each cohort.
All subjects had PK sampling done after the first and final dose of the study drug.
(§1) Raw bioanalytical data were received from Nuvisan following analysis of plasma samples from each of four cohorts. PK parameters were calculated by noncompartmental analysis using standard equations. Specifically, area under the plasma concentration versus time curve (AUC) was calculated using the trapezoid rule. Maximal plasma concentration (Cmax) and time of maximal plasma concentration (Tmax) were taken directly from the data. Clearance divided by bioavailability (Cl/F) was calculated as the dose divided by the AUC. Apparent volume of distribution over bioavailability (Vd/F) was calculated as dose divided by Cmax.
With oral administration of the dose every 24 hours for 7 days, blood samples were taken over a 24-hour interval on Days 1 and 7 and before and after dosing on Day 3.
as §1, with “on Oct. 27, 2022. […]” for “following analysis of plasma samples from each of four cohorts. PK parameters were calculated by noncompartmental analysis using standard equations.”
as §1, with “on Nov. 24, 2022. […]” for “following analysis of plasma samples from each of four cohorts. PK parameters were calculated by noncompartmental analysis using standard equations.”
as §1, with “on Dec. 19, 2022. […]” for “following analysis of plasma samples from each of four cohorts. PK parameters were calculated by noncompartmental analysis using standard equations.”
Raw bioanalytical data were received from Nuvisan on Jun. 30, 2023. […] Specifically, area under the plasma concentration versus time curve (AUC) was calculated using the trapezoid rule. Maximal plasma concentration (Cmax) and time of maximal plasma concentration (Tmax) were taken directly from the data. […]

CC1(Cc2ccccc2)COc2cc(C(=O)N3CCCCC3)ccc21 (centres unmarked) [NTRX-07, 3-benzyl-3-methyl-2,3-dihydrobenzofuran-6-carboxylic acid-piperidine amide]
Cmax (10 mg, Table 10: Cohort A, 10 mg QD oral, Day 7, mean ± S.D., read-out: Cmax): 0.0377 ± 0.0159 µg/mL
Tmax (10 mg, Table 10: Cohort A, 10 mg QD oral, Day 7, mean ± S.D., read-out: Tmax): 48 ± 18 min
Vd/F (10 mg, Table 10: Cohort A, 10 mg QD oral, Day 7, mean ± S.D., read-out: Vd/F): 307 ± 126 L
Tmax (10 mg, Table 19 (interim): Cohort A, 40 mg SDD (10 mg NTRX-07) QD oral, Day 1, individual subjects, read-out: Tmax): 30 min
AUC over 24 h (AUC0-24) (10 mg, Table 19 (interim): Cohort A, 40 mg SDD (10 mg NTRX-07) QD oral, Day 1, mean ± S.D.): 0.093 ± 0.0009 µg·h/mL
Cmax (10 mg, Table 19 (interim): Cohort A, 40 mg SDD (10 mg NTRX-07) QD oral, Day 1, mean ± S.D., read-out: Cmax): 0.0356 ± 0.0128 µg/mL
Tmax (10 mg, Table 19 (interim): Cohort A, 40 mg SDD (10 mg NTRX-07) QD oral, Day 1, mean ± S.D., read-out: Tmax): 42 ± 18 min
Vd/F (10 mg, Table 19 (interim): Cohort A, 40 mg SDD (10 mg NTRX-07) QD oral, Day 1, mean ± S.D., read-out: Vd/F): 1280 ± 544 L
Tmax (10 mg, Table 20 (interim): Cohort A, 40 mg SDD (10 mg NTRX-07) QD oral, Day 7, individual subjects, read-out: Tmax): 30 min
AUC over 24 h (AUC0-24) (10 mg, Table 20 (interim): Cohort A, 40 mg SDD (10 mg NTRX-07) QD oral, Day 7, mean ± S.D.): 0.0944 ± 0.0668 µg·h/mL
Cmax (10 mg, Table 20 (interim): Cohort A, 40 mg SDD (10 mg NTRX-07) QD oral, Day 7, mean ± S.D., read-out: Cmax): 0.0377 ± 0.0159 µg/mL
Tmax (10 mg, Table 20 (interim): Cohort A, 40 mg SDD (10 mg NTRX-07) QD oral, Day 7, mean ± S.D., read-out: Tmax): 48 ± 18 min
Vd/F (10 mg, Table 20 (interim): Cohort A, 40 mg SDD (10 mg NTRX-07) QD oral, Day 7, mean ± S.D., read-out: Vd/F): 1230 ± 506 L
AUC(0-t) (30 mg, Cohort B Fed, single 30 mg oral dose after high-fat meal, mean ± SD, read-out: Average of AUC24 h): 0.39 ± 0.28 µg·h/mL
Cmax (30 mg, Cohort B Fed, single 30 mg oral dose after high-fat meal, mean ± SD, read-out: Average of Cmax): 0.06 ± 0.037 µg/mL
Tmax (30 mg, Cohort B Fed, single 30 mg oral dose after high-fat meal, mean ± SD, read-out: Average of Tmax): 144 ± 108 min
Vd/F (30 mg, Cohort B Fed, single 30 mg oral dose after high-fat meal, mean ± SD, read-out: Average of Vd/F): 699 ± 424 L
AUC(0-t) (30 mg, Cohort B healthy, 30 mg QD oral, Day 1, mean ± SD, read-out: Average of AUC24 h): 0.328 ± 0.213 µg·h/mL
Cmax (30 mg, Cohort B healthy, 30 mg QD oral, Day 1, mean ± SD, read-out: Average of Cmax): 0.109 ± 0.058 µg/mL
Tmax (30 mg, Cohort B healthy, 30 mg QD oral, Day 1, mean ± SD, read-out: Average of Tmax): 54 ± 30 min
Vd/F (30 mg, Cohort B healthy, 30 mg QD oral, Day 1, mean ± SD, read-out: Average of Vd/F): 349 ± 175 L
AUC(0-t) (30 mg, Cohort B healthy, 30 mg QD oral, Day 7, mean ± SD, read-out: Average of AUC24 h): 0.236 ± 0.186 µg·h/mL
Cmax (30 mg, Cohort B healthy, 30 mg QD oral, Day 7, mean ± SD, read-out: Average of Cmax): 0.12 ± 0.079 µg/mL
Tmax (30 mg, Cohort B healthy, 30 mg QD oral, Day 7, mean ± SD, read-out: Average of Tmax): 36 ± 12 min
Vd/F (30 mg, Cohort B healthy, 30 mg QD oral, Day 7, mean ± SD, read-out: Average of Vd/F): 391 ± 235 L
AUC(0-t) (30 mg, Table 11: Cohort B, 30 mg QD oral, Day 1, mean ± S.D., read-out: AUClast): 0.328 ± 0.213 µg·h/mL
Cmax (30 mg, Table 11: Cohort B, 30 mg QD oral, Day 1, mean ± S.D., read-out: Cmax): 0.109 ± 0.058 µg/mL
Tmax (30 mg, Table 11: Cohort B, 30 mg QD oral, Day 1, mean ± S.D., read-out: Tmax): 54 ± 30 min
Vd/F (30 mg, Table 11: Cohort B, 30 mg QD oral, Day 1, mean ± S.D., read-out: Vd/F): 349 ± 175 L
Tmax (30 mg, Table 12: Cohort B, 30 mg QD oral, Day 7, individual subjects, read-out: Tmax): 30 min
AUC(0-t) (30 mg, Table 12: Cohort B, 30 mg QD oral, Day 7, mean ± S.D., read-out: AUClast): 0.236 ± 0.186 µg·h/mL
Cmax (30 mg, Table 12: Cohort B, 30 mg QD oral, Day 7, mean ± S.D., read-out: Cmax): 0.12 ± 0.079 µg/mL
Tmax (30 mg, Table 12: Cohort B, 30 mg QD oral, Day 7, mean ± S.D., read-out: Tmax): 36 ± 12 min
Vd/F (30 mg, Table 12: Cohort B, 30 mg QD oral, Day 7, mean ± S.D., read-out: Vd/F): 391 ± 234 L
AUC(0-t) (30 mg, Table 13: Cohort B Fed, 30 mg oral, fed state, mean ± S.D., read-out: AUClast): 0.39 ± 0.28 µg·h/mL
Cmax (30 mg, Table 13: Cohort B Fed, 30 mg oral, fed state, mean ± S.D., read-out: Cmax): 0.06 ± 0.037 µg/mL
Tmax (30 mg, Table 13: Cohort B Fed, 30 mg oral, fed state, mean ± S.D., read-out: Tmax): 144 ± 108 min
Vd/F (30 mg, Table 13: Cohort B Fed, 30 mg oral, fed state, mean ± S.D., read-out: Vd/F): 699 ± 424 L
AUC(0-t) (90 mg, Cohort C healthy, 90 mg QD oral, Day 1, mean ± SD, read-out: Average of AUC24 h): 1.27 ± 0.509 µg·h/mL
Cmax (90 mg, Cohort C healthy, 90 mg QD oral, Day 1, mean ± SD, read-out: Average of Cmax): 0.4 ± 0.202 µg/mL
Tmax (90 mg, Cohort C healthy, 90 mg QD oral, Day 1, mean ± SD, read-out: Average of Tmax): 138 ± 132 min
Vd/F (90 mg, Cohort C healthy, 90 mg QD oral, Day 1, mean ± SD, read-out: Average of Vd/F): 337 ± 316 L
AUC(0-t) (90 mg, Cohort C healthy, 90 mg QD oral, Day 7, mean ± SD, read-out: Average of AUC24 h): 0.741 ± 0.357 µg·h/mL
Cmax (90 mg, Cohort C healthy, 90 mg QD oral, Day 7, mean ± SD, read-out: Average of Cmax): 0.189 ± 0.095 µg/mL
Tmax (90 mg, Cohort C healthy, 90 mg QD oral, Day 7, mean ± SD, read-out: Average of Tmax): 78 ± 60 min
AUC(0-t) (90 mg, Cohort D AD patients, 90 mg QD oral, Day 1, mean ± SD, read-out: Average of AUC24 h): 1.56 ± 0.605 µg·h/mL
Cmax (90 mg, Cohort D AD patients, 90 mg QD oral, Day 1, mean ± SD, read-out: Average of Cmax): 0.478 ± 0.154 µg/mL
Tmax (90 mg, Cohort D AD patients, 90 mg QD oral, Day 1, mean ± SD, read-out: Average of Tmax): 66 ± 36 min
Vd/F (90 mg, Cohort D AD patients, 90 mg QD oral, Day 1, mean ± SD, read-out: Average of Vd/F): 211 ± 90 L
AUC(0-t) (90 mg, Cohort D AD patients, 90 mg QD oral, Day 7, mean ± SD, read-out: Average of AUC24 h): 0.806 ± 0.196 µg·h/mL
